Patent US11767313B2, “Compounds as nuclear transport modulators and uses thereof” (XWPHARMA LTD., priority 2018, dated 2023)
pEC50, pIC50: −log10 of the molar value. Read-outs that look alike come from different tables or passages of the source.

Columns and labels:
[1] = system: U87MG; assay: CellTiter-Glo cell proliferation assay, U87MG; assay type: cell-based, human; conditions: for pIC50: Homo sapiens, U-87 MG
How it was run: (§1)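 Cells were seeded at 1,500 to 5,000 per well overnight, then exposed for 72 hours to 10 concentrations of compound from 2- or 3-fold serial dilutions. Viability was read as CellTiter-Glo luminescence, and % growth was normalized to DMSO-treated cells and medium-only background. IC50 came from concentration-response fitting.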

[2] = system: T98G; assay: CellTiter-Glo cell proliferation assay, T98G; assay type: cell-based; conditions: Homo sapiens, T98G; for IC50: Table 11, read-out: Absolute IC50 (μM) T98G
How it was run: as §1

[3] = system: LN-229; assay: CellTiter-Glo cell proliferation assay, LN-229; assay type: cell-based; conditions: Homo sapiens, LN-229; for IC50: Table 11, read-out: Absolute IC50 (μM) LN-229
How it was run: as §1

[4] = system: U251; assay: CellTiter-Glo cell proliferation assay, U251; assay type: cell-based; conditions: Homo sapiens, U-251; for IC50: Table 11, read-out: Absolute IC50 (μM) U251
How it was run: as §1

[5] = system: A549; assay: CellTiter-Glo cell proliferation assay, A549; assay type: cell-based; conditions: Homo sapiens, 72 hours, Table 1, read-out: Growth inhibition (IC50)
Description: (§2) CellTiter-Glo® Luminescent Cell Viability assay (with Promega CellTiter 96® Luminescent CellTiter-Glo® kit) was used to study the proliferation inhibition by test compounds. Compounds were resuspended in DMSO to make a 25 mM stock suspension. Cells of cancer cell lines or normal tissues were seeded in 96-well plates at 1,500 to 5,000 cells/well overnight. Compounds were 2- or 3-fold diluted serially to obtain 10 concentrations. Then, the drugs were added to the cell wells by Bravo (Agilent) and incubated for 72 hours. The cells were lysed by adding CellTiter-Glo® Reagent (per manufacturer's instructions) and subsequently, the luminescence was read using EnVision® (PerkinElmer).
(§3) The percent of growth was calculated as follows. DMSO-treated cells were employed as vehicle control (High control, HC) and culture medium alone was employed as background (Low control, EC). % growth=100×(Lum sample−Lum EC)/(Lum HC−Lum EC). The ICso was calculated by concentration-response curve fitting using Graphpad Prism.
(§4) Hematological cancer cell lines tested included OCI-AML3, MV-4-11, KG-1, Kasumi-1, K562, THP-1; solid cancer cell lines tested included U87MG, U251, T98G, LN229, A172, H460, H2009, A549; normal cell lines tested included HCN2 and 3T3-L1. […] However, they were not toxic to in vitro cultured normal cells.

[6] = system: HCN2; assay: CellTiter-Glo cell proliferation assay, HCN2 (normal brain); assay type: cell-based
Description: as §2, §3, §4

[7] = system: C8-B4; assay: Cytotoxicity, cell proliferation assay, C8-B4; assay type: cell-based; conditions: Table 8
Description: as §2, §3
The cytotoxicity of test compounds in brain (HCN2), colon cancer (HCT116) and normal colon cell (C8-B4) lines was determined using the cell proliferation assay as described in Example 19.

[8] = Ratio of brain to plasma; assay type: in vivo; conditions: rats, 10 mg/kg PO
Description: (§5) Following collection, brain tissue was rinsed with cold saline, dried on filter paper, weighed and snap-frozen by placing on dry ice. All samples were stored frozen at approximately −80° C. until analysis. At the time of analysis, brain tissue was homogenized (homogenizing solution PBS, pH 7.4), mixed with internal standard in acetonitrile, vortexed, centrifuged, and supernatant was injected for analysis. Concentration of compounds in plasma was determined using LC-MS-MS instrumentation (API 4000, Triple Quadrupole LC/MS/MS Mass Spectrometer). Plasma samples were treated with the identical method (except homogenization step) and the concentration of compound in each matrix was calculated based on generated standard curves.

[9] = Pharmacokinetic profile summary; assay type: in vivo, mice or rats; conditions: for bioavailability / Kp at 1 h: oral; for bioavailability / half-life: mice or rats; for AUC / Cmax: po; for Kp at 1 h: brain/plasma, read-out: B/P ratio (Cmax time) 10 mpk
Description: Blood was collected from mice (n=3, or 5) to contribute to the total of 10 time points (pre-dose, 5 min, 15 min, 30 min, 1 hour, 2 hours, 4 hours, 8 hours, 12 hours and 24 hours). At the designated time points, animals were anaesthetized under isoflurane, and approximately 110 μL of blood per time point was collected via retro-orbital puncture into pre-cooled K2EDTA tubes. Blood samples were put on wet ice and centrifuged (2000 g, 5 min at 4° C.) to obtain plasma within 30 minutes of sample collection. All samples were stored frozen at approximately −80° C. until analysis. Prior to analysis, samples were mixed with internal standard in acetonitrile, vortexed, centrifuged, and supernatant was injected for analysis. Concentration of compounds in plasma was determined using LC-MS-MS instrumentation (API 4000, Triple Quadrupole LC/MS/MS Mass Spectrometer). AUC values were calculated using Phoenix Win Nonlin 6.3 software package, PO-Noncompartmental model 200 (extravascular input).
as §5
The pharmacokinetic profile of test compounds in mice or rats was determined from several test compounds was determined using the methods described in Example 22.

[10] = biological target: XPO1 (Homo sapiens, UniProt O14980); assay: REV-GFP translocation assay in U2OS cells; assay type: cell-based; parameters: endogenous in cells; host or cells: U2OS cells stably expressing REV-GFP (clones from HD Biosciences); conditions: for pIC50: Table 10; for EC50: Table 13, read-out: Rev-GFP assay/μM
Chain of XPO1 (O14980 whole entry): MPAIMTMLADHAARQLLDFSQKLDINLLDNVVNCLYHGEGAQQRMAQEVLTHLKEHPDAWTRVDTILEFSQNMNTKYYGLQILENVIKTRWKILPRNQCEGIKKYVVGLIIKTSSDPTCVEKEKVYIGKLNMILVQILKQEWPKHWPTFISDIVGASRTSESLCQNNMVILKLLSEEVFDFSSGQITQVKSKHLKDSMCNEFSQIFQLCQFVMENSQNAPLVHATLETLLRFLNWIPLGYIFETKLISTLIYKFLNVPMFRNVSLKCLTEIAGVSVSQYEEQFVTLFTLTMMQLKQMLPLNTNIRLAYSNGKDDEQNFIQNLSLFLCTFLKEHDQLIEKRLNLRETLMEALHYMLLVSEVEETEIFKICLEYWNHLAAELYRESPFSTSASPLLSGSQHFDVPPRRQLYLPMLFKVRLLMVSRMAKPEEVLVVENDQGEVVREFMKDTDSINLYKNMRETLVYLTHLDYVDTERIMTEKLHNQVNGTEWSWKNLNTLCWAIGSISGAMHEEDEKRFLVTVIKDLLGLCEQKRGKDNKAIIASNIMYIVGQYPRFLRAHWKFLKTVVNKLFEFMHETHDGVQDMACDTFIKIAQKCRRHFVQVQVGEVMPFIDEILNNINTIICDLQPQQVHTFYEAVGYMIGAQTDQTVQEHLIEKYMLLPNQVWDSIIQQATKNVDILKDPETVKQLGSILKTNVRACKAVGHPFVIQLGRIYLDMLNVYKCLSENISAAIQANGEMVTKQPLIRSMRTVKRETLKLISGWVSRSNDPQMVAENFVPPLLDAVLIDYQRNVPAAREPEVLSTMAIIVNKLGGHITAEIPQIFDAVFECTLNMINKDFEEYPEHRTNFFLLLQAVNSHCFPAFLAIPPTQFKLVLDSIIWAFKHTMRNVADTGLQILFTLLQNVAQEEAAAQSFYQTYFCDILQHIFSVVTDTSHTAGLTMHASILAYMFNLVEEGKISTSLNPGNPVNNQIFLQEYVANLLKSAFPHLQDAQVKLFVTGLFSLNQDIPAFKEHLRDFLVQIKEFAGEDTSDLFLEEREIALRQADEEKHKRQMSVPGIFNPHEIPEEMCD
How it was run: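 High-content imaging (Hoechst and GFP channels, 20× objective) quantified REV-GFP nuclear translocation in U2OS cells after 1 h compound exposure at 37° C, maximum 10 μM. Cells were formaldehyde-fixed before staining. Results expressed as % effect scaled between vehicle control and 50 nM LMB.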

[11] = 72 h, U87MG, 72 hours, Table 1, read-out: Growth inhibition (IC50)
[12] = Table 9, first value column, read-out: U87MG IC50
[13] = Table 9, second value column, read-out: U87MG IC50
[14] = 72 h, HCN2 normal cell line, 72 hours, Table 1, read-out: Growth inhibition (IC50)
[15] = 10 mg/kg, plasma, 10 mpk, read-out: Cmax (ng/ml) plasma/10 mpk
[16] = REV-EGFP U2OS cells, 1 h, Table 2, read-out: Rev-GFP/EC50
[17] = first (or only) value of the cell
[18] = 72 hours, Table 1, read-out: Growth inhibition (IC50)

SMILES | pIC50 [1, 11] | pIC50 [1, 12] | pIC50 [1, 13] | IC50 [2] [µM] | IC50 [3] [µM] | IC50 [4] [µM] | pIC50 [6, 14] | pIC50 ([6]; Table 9, read-out: HCN2 IC50) | bioavailability ([9]; plasma) [%] | AUC ([9]; plasma, 10 mg/kg, 10 mpk) [ng·h/mL] | half-life ([9]; plasma) [h] | Cmax [9, 15] [ng/mL] | Kp at 1 h ([9]; rat, 10 mg/kg) | pEC50 [10, 16] | pIC50 [10, 17] | pIC50 ([10]; second value of the cell) | EC50 [10] [µM] | also measured
O=C(/C=C\n1cnc(-c2cc(C(F)(F)F)cc(S(F)(F)(F)(F)F)c2)n1)NNc1cnccn1 [Compound I, (Z)-3-(3-(3-(pentafluorosulfanyl)-5-(trifluoromethyl)phenyl)-1H-1,2,4-triazol-1-yl)-N′-(pyrazin-2-yl)acrylohydrazide] | 6.23 | 6.42 | 6.10 | 1.7 | 0.6 | 1.2 | 4.59 | 4.59 | 98 | 10000 | 4.7 | 2550 | 0.71 | 7.92 | 7.79 | 8.11 | 0.012 | pIC50 ([1]; Table 6, read-out: U87MG IC50): 6.65; pIC50 [5]: 5.83; HCN2 Max % inh ([6]; Table 8): 22%; pIC50 ([6]; Table 8, read-out: HCN2 IC50): < 4.30; pIC50 ([7]; C8-B4): 5.37; C8-B4 Max % inh [7]: 91%; Kp at 0.25 h ([8]; rat, brain/plasma, 0.25 h): 0.386; Kp at 1 h ([8]; rat, brain/plasma, 1 h): 0.707; Kp at 8 h ([8]; rat, brain/plasma, 8 h): 0.782; brain concentration (second number of pair) ([8]; 0.25 h): 319 ng/g; plasma concentration (first number of pair) ([8]; 0.25 h): 810 ng/g; brain concentration (second number of pair) ([8]; 1 h): 1301 ng/g; plasma concentration (first number of pair) ([8]; 1 h): 1887 ng/g; brain concentration (second number of pair) ([8]; 8 h): 194 ng/g; plasma concentration (first number of pair) ([8]; 8 h): 252 ng/g; Cmax ([9]; rat, 10 mg/kg, 10 mpk, first number of Plasma/brain pair, read-out: Cmax/(ng/mL) Plasma): 1890 ng/mL; Cmax ([9]; rat, 10 mg/kg, 10 mpk, second number of Plasma/brain pair, read-out: Cmax/(ng/mL) brain): 1300 ng/mL
CC(C)(C)C(=O)NNC(=O)/C=C\n1cnc(-c2cc(C(F)(F)F)cc(S(F)(F)(F)(F)F)c2)n1 [Compound III, (Z)-3-(3-(3-(Pentafluorosulfanyl)-5-(trifluoromethyl)phenyl)-1H-1,2,4-triazol-1-yl)-N′-pivaloylacrylohydrazide] | 5.76 | 5.95 | 5.63 | 6.2 | 1.8 | 3.8 | < 4.30 | < 4.30 | 82 | 13900 | 5.2 | 1600 | 0.95 | 6.67 | 6.53 | 6.90 | 0.21 | pIC50 ([1]; U87MG, Table 12, read-out: Relative IC50): 6.70; Max % Inhibition ([1]; U87MG, Table 12): 46.3%; Bottom ([1]; U87MG, curve fit, Table 12): −4.2; Hill Slope ([1]; U87MG, curve fit, Table 12): 3.2; Top ([1]; U87MG, curve fit, Table 12): 40.2; pIC50 [2, 18]: 5.20; pIC50 [3, 18]: 5.75; pIC50 ([4]; U251, 72 hours, Table 1, read-out: Growth inhibition (IC50)): 5.42; Cmax ([9]; 3 mg/kg, 3 mpk, first number of Plasma/brain pair, read-out: Cmax/(ng/mL) Plasma): 1250 ng/mL; Cmax ([9]; 3 mg/kg, 3 mpk, second number of Plasma/brain pair, read-out: Cmax/(ng/mL) brain): 1190 ng/mL; cell viability in REV-GFP assay ([10]; 1 h, all concentrations tested): no decrease in cell viability; EC90 ([10]; U2OS, concentration stated as EC90 in washout study, read-out: EC90 (REV-EGFP translocation)): 0.4 µM; pEC50 ([10]; concentration stated as EC50 in washout study, read-out: EC50 (REV-EGFP translocation)): 6.92
